# Results reported in patent US7858322B2, “Method of determining inhibition of binding to TRPM7 protein” (NoNo, Inc., priority 2003, dated 2010).
# Key:
# [1] = tested on: cultured cortical neurons; experiment: Oxygen glucose deprivation (OGD) neuronal cell death; type: cell-based; settings: FIG. 7
# Description: The fraction of dead cells was determining by dividing the number of neurons expressing GFP which became stained with propidium iodide 20 h after OGD by the number of neurons expressing GFP at the beginning of the experiment. Data for each culture was obtained from counting cells in 3 high power microscope fields per experiment.
# [2] = tested on: cultured neurons; experiment: Neuronal survival 20 h after 1 h NMDA challenge; type: cell-based; settings: peptide applied immediately after the NMDA challenge; FIG. 14
# Description: The sequence of Tat-9cTRPM7 is: [[…] or [[…]-[…]] (SEQ ID NO:258), whereby the first 11 residues correspond to the cell membrane transduction domain of the human immunodeficiency virus type 1 (HIV-1) Tat protein and the last 9 residues correspond to the last 9 amino acids of the C-terminus of human TRPM7 (accession Q96QT4). […] (A) Neuronal survival at 20 h in the indicated concentrations of Tat-9cTRPM7 in the absence of excitotoxic challenge. (B) Neuronal survival 20 h after challenging the cultures for 1 h with the indicated concentration of NMDA. Tat-9cTRPM7 was applied immediately after the NMDA challenge.
# The sequence of Tat-9cTRPM7 is: [[…]-[…]; SEQ ID NO:258], whereby the first 11 residues correspond to the cell-membrane transduction domain of the human immunodeficiency virus type 1 (HIV-1) Tat protein and the last 9 residues correspond to the last 9 amino acids of the C-terminus of human TRPM7 (accession Q96QT4). (A) Neuronal survival at 20 h in the indicated concentrations of Tat-9cTRPM7 in the absence of excitotoxic challenge. (B) Neuronal survival 20 h after challenging the cultures for 1 h with the indicated concentration of NMDA. Tat-9cTRPM7 was applied immediately after the NMDA challenge.
Compound,Survival of neurons in prolonged OGD [1],Neuronal survival 20 h after challenging the cultures for 1 h with NMDA [2]
[Gd+3] [Gd^3+],can permit survival of neurons destined to die from prolonged OGD,
"YGRKKRRQRRR-STNSVRLML (YGRKKRRQRRRSTNSVRLML) [Tat-9cTRPM7, HIV-1 Tat transduction domain fused to last 9 amino acids of human TRPM7]",,enhanced survival when challenged with NMDA
